Experimental data taken from US10028992B2, “Methods of treating muscular dystrophy” (BOARD OF REGENTS OF THE NEVADA SYSTEM OF HIGHER EDUCATION …, priority 2012, dated 2018).

System: α7 integrin promoter
Assay: muscle cell-based assay: α7βgal+/− myoblasts/myotubes, LacZ reporter, β-galactosidase cleavage of FDG
Parameters: species or system mouse; Results in α7+/− β-galactosidase assay: scale not given here
Details: Myoblasts
Outline: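 Primary α7βgal+/− mouse myoblasts (LacZ knocked into α7 integrin exon 1, promoter retained), differentiated; promoter activity read as β-galactosidase conversion of non-fluorescent FDG to fluorescein. Hits followed by dose-response, western analysis and myostatin counterscreen.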

SMILES	Results in α7+/− β-galactosidase assay (0.5 uM)	Results in α7+/− β-galactosidase assay (1 uM)	Results in α7+/− β-galactosidase assay (5 uM)	Results in α7+/− β-galactosidase assay (10 uM)	Results in α7+/− β-galactosidase assay (20 uM)	Results in α7+/− β-galactosidase assay (40 uM)
CC(C)(C)c1ccc(C(=O)OCC(=O)Nc2sc3c(c2C#N)CCC3)cc1 [drawing 678]	0.2055	0.1005	0.3001	−0.02658	0.3137	0.2257
CCOc1cc(C)c(S(=O)(=O)N2CCCCC2)cc1C [drawing 679]	0.1137	0.2418	0.02032	−0.02723	0.1874	0.2404
Cc1cc(OCC(=O)NC(C)C)ccc1Cl [drawing 680]	−0.00101	0.01964	−0.2128	−0.3742	−0.5775	−0.6915
Cc1ccsc1CN(C)CC(=O)Cc1ccc([N+](=O)[O-])cc1Cl [drawing 681]	0.233	0.3513	−0.03377	−0.09863	−0.01304	−0.0403
O=C1c2ccccc2C(=O)C1(CC(O)O)c1ccccc1 [drawing 682]	0.2496	0.3517	−0.03545	−0.1644	−0.1709	−0.2409
Cc1ccc(Cn2nnc3c(O)nc(C4CCCN(C(=O)c5ccco5)C4)nc32)cc1 (stereo not drawn) [drawing 683]	0.09519	0.1784	−0.02152	−0.00668	−0.00332	0.06402
Cc1ccc(NS(=O)(=O)c2ccc(-c3ccc(O)nn3)o2)c(C)c1 [drawing 685]	0.09197	0.1114	−0.00204	−0.06144	0.2389	0.2674
CCCCN1CC(=O)N2Cc3[nH]c4ccccc4c3C[C@H]2C1=O [drawing 686]	0.1518	0.2222	−0.00341	−0.04523	0.1761	0.2299
CCC(CC)C(=O)Nc1c(C(=O)N2CCN(c3ccccc3)CC2)oc2ccccc12 [drawing 687]	0.02952	0.08671	0.02479	−0.0251	0.2442	0.3404
Cc1nc(/C=C2\C(=O)Nc3ccccc32)c[nH]1 [drawing 688]	0.0102	0.003171	0.1245	−0.03494	0.1171	0.02067
O=C(NCCc1ccc(Cl)cc1)C1CCCO1 (stereo not drawn) [drawing 689]	0.03412	0.00045	0.2918	0.03423	0.08798	0.003802
CCNC(=O)C(=O)Nc1cc2c3c(c1)CCN3C(=O)CC2 [drawing 690]	0.05836	0.1657	0.2771	0.06388	0.05069	0.005609
Cc1cccc(NCC(=O)N/N=C/c2ccccn2)c1 [drawing 691]	0.1681	0.3046	0.3928	0.1778	−0.1319	−0.4037
COc1ccc(CN2CCNC(=O)C2CC(=O)NCCc2c[nH]c3ccccc23)c(OC)c1 (stereo not drawn) [drawing 692]	0.0135	0.04793	0.2102	−0.04499	−0.02608	−0.01274
